# Measurements reported in paper PMC5403251 (Neuropharmacology, 2016).
# What was measured:
# [1] = test system: C57BL/6J mice; experiment: Discrete-trials temporal discrimination task; type: in vivo, mouse
# [2] = test system: 5-HT2C receptors; conditions: ref Kennett et al., 1997; cited from earlier work
# [3] = test system: 5-HT2C; conditions: in mice; ref Canal et al., 2013; cited from earlier work
# [4] = test system: 5-HT2A; conditions: in mice; ref Canal et al., 2013; cited from earlier work
# [5] = test system: 5-HT2A; conditions: in humans; ref Almaula et al., 1996; Pigott et al., 2012; Canal et al., 2013; cited from earlier work
# [6] = test system: 5-HT2A; conditions: ref Kehne et al., 1996; cited from earlier work
# [7] = SB-242,084 0.1 mg/kg SC, 10 min before session
# [8] = SB-242,084 0.3 mg/kg SC, 10 min before session
# [9] = SB-242,084 1 mg/kg SC, 10 min before session
# [10] = DOI 0.3 mg/kg IP, 10 min before session
# [11] = DOI 1 mg/kg IP, 10 min before session
# [12] = DOI 3 mg/kg IP, 10 min before session, dose-response experiment
# [13] = M100907 blockade experiment: vehicle pretreatment, DOI 3 mg/kg IP
# [14] = SB-242,084 blockade experiment: vehicle pretreatment, DOI 3 mg/kg IP
# [15] = M100907 0.03 mg/kg SC, 10 min before session
# [16] = M100907 0.1 mg/kg SC, 10 min before session
# [17] = M100907 0.3 mg/kg SC, 10 min before session
molecule,measurement,setting,value
"6-chloro-2,3-dihydro-5-methyl-N-[6-[(2-methyl-3-pyridinyl)oxy]-3-pyridinyl]-1H-indole-1-carboxyamide dihydrochloride [SB-242,084]",Effect of pretreatment on the response to DOI (%B responding),"[1]; SB-242,084 0.1 mg/kg SC pretreatment, DOI 3 mg/kg IP",did not block the ability of DOI to alter %B responding
same,Difference limen,[1]; [7],0.98 ± 0.10 s
same,Slope (ε),[1]; [7],1.202±0.110
same,T50,[1]; [7],6.28 ± 0.14 s
same,Trials completed,[1]; [7],191.4±1.6
same,Weber fraction,"[1]; SB-242,084 0.1 mg/kg SC, 10 min before session, mean±SEM",0.156±0.016
same,Difference limen,[1]; [8],1.05 ± 0.08 s
same,Slope (ε),[1]; [8],1.094±0.084
same,T50,[1]; [8],6.02 ± 0.14 s
same,Trials completed,[1]; [8],189.9±2.5
same,Weber fraction,[1]; [8],0.173±0.015
same,Difference limen,[1]; [9],1.07 ± 0.09 s
same,Slope (ε),[1]; [9],1.105±0.108
same,T50,[1]; [9],5.66 ± 0.17 s
same,Trials completed,[1]; [9],188.0±2.8
same,Weber fraction,[1]; [9],0.191±0.018
same,Selectivity for 5-HT2C receptors compared with 5-HT2A and 5-HT2B receptors,[2],over 100 fold
same,Selectivity for 5-HT2C over 5-HT2A,[3],960 fold
"COc1cc(CC(C)N)c(OC)cc1I.Cl (stereo not drawn) [DOI, 1-(2,5-dimethoxy-4-iodophenyl)-2-aminopropane hydrochloride]",Difference limen,[1]; [10],1.20 ± 0.12 s
same,Slope (ε),[1]; [10],1.009±0.108
same,T50,[1]; [10],6.36 ± 0.17 s
same,Trials completed,[1]; [10],188.3±2.7
same,Weber fraction,"[1]; DOI 0.3 mg/kg IP, 10 min before session, mean±SEM",0.192±0.022
same,Difference limen,[1]; [11],1.29 ± 0.14 s
same,Slope (ε),[1]; [11],0.968±0.133
same,T50,[1]; [11],6.43 ± 0.13 s
same,Trials completed,[1]; [11],174.6±5.4
same,Weber fraction,[1]; [11],0.200±0.021
same,Difference limen,[1]; [12],1.89 ± 0.14 s
same,Slope (ε),[1]; [12],0.608±0.044
same,T50,[1]; [12],7.08 ± 0.41 s
same,Weber fraction,[1]; [12],0.275±0.030
same,%B responding (proportional choice of lever B),"[1]; DOI 3 mg/kg IP, 6.1, 7.8, 8.7 and 10.5 s after trial onset, dose-response experiment",significant reductions in %B responding
same,%B responding (proportional choice of lever B),"[1]; DOI 3 mg/kg IP, 6.9, 7.8, 9.6 and 10.5 s trials, M100907 blockade experiment",reduced %B responding
same,Difference limen,[1]; [13],1.71 ± 0.14 s
same,Slope (ε),[1]; [13],0.661±0.044
same,T50,[1]; [13],7.35 ± 0.20 s
same,Trials completed,[1]; [13],148.3±8.8
same,Weber fraction,[1]; [13],0.233±0.018
same,Difference limen,[1]; [14],1.74 ± 0.16 s
same,Slope (ε),[1]; [14],0.713±0.101
same,T50,[1]; [14],6.89 ± 0.31 s
same,Trials completed,[1]; [14],142.5±8.8
same,Weber fraction,[1]; [14],0.255±0.026
same,Correct responding during the 10.5 s-trials,[1]; after drug treatment that reduced %B responding at long stimulus intervals,more than 80%
same,Selectivity for 5-HT2A vs. 5-HT2C receptors,[4],12 fold
same,Selectivity for 5-HT2A,[5],~ 5 fold
"COc1cccc([C@H](O)C2CCN(CCc3ccc(F)cc3)CC2)c1OC [M100907, (R)-(+)-α-(2,3-dimethoxyphenyl)-1-[2-(4-fluorophenyl)ethyl]-4-piperidinemethanol]",Effect of pretreatment on the T50 increase produced by DOI,"[1]; M100907 0.03 mg/kg SC pretreatment, DOI 3 mg/kg IP",failed to completely block the T50 increase produced by DOI
same,Effect of pretreatment on the response to DOI (%B responding),"[1]; M100907 0.03 mg/kg SC pretreatment, DOI 3 mg/kg IP, 6.9 and 10.5 s stimuli",blocked the effect of DOI on %B responding
same,Difference limen,[1]; [15],1.31 ± 0.25 s
same,Slope (ε),[1]; [15],0.997±0.114
same,T50,[1]; [15],6.42 ± 0.23 s
same,Trials completed,[1]; [15],163.6±6.5
same,Weber fraction,"[1]; M100907 0.03 mg/kg SC, 10 min before session, mean±SEM",0.214±0.051
same,Difference limen,[1]; [16],1.48 ± 0.15 s
same,Slope (ε),[1]; [16],0.791±0.070
same,T50,[1]; [16],6.80 ± 0.37 s
same,Trials completed,[1]; [16],155.4±7.4
same,Weber fraction,"[1]; M100907 0.1 mg/kg SC, 10 min before session, mean±SEM",0.220±0.021
same,Difference limen,[1]; [17],1.60 ± 0.20 s
same,Slope (ε),[1]; [17],0.857±0.184
same,T50,"[1]; M100907 0.3 mg/kg SC, 10 min before session, 0.3 mg/kg",7.71 ± 0.45 s
same,Weber fraction,"[1]; M100907 0.3 mg/kg SC, 10 min before session, mean±SEM",0.206±0.021
same,Affinity for 5-HT2A,[6],subnanomolar
same,Fold lower affinity for 5-HT2C and α1 receptors than for 5-HT2A,[6],at least 100 fold
same,Selectivity for 5-HT2A vs. 5-HT2C receptors,[4],165 fold
